Reference: patent US20220370642A1, “METHODS OF DETECTING NEUROLOGICAL DISORDERS VIA BINDING TO PHOSPHORYLATED TAU PROTEIN” (Amydis, Inc., priority 2019, published 2022)

Tested on: hyperphosphorylated 3RTau
Assay: Tau protein retinal staining: colocalization of Compound 5 with 3RTau antibody in retinal sections (confocal fluorescence)
Format: binding, mice
Settings: for Pearson correlation coefficient (PCC) of colocalization with 3RTau antibody: Image J analysis, -1=complete anti-colocalization, 0=non colocalization, 1=complete colocalization
Experimental: Retinas of different age of three-repeat tau (“3RTau”) mice (3 months, 6 months and 12 months) were mounted on slides. The retina were washed with PBS 2 times for 5 minutes. A solution of 98% formic acid was added—5 minutes for antigen retrieval. The sampled were washed with distilled water—2 times for 5 minutes. The samples were equilibrated in 1×PBS for 15 minutes, then blocked with 10% goat/donkey serum in 1×PBST (depending on antibodies) for 1 hour. The samples were then incubated with three-repeat tau antibody in 10% goat serum in 1×PBST at 4 degree C. overnight, then rinsed with 1×PBST 3 times for 5 minutes each. Samples were incubated with secondary antibody (Alexa Fluor 568 Anti mouse) in 1×PBST for 1 hour, then covered with foil, then rinsed with 1×PBST 3 times for 5 minutes each. Samples were stained with Compound 5 working solution for 30 minutes at room temperature, covered in foil, and washed with 1×PBS 3 times for 5 minutes each. Samples were stained with DAPI (300 nM or 100 ng/mL) in dark for 10 minutes, then tissues were washed 3×10 minutes with PBS. Antifade DAKO mounting medium was added, and coverslip and kept under foil until imaging. Images were obtained using a Leica confocal microscope.
Fluorescent imaging study was conducted on a Leica DMI 4000B microscope (Leica, Germany) equipped with a TCS SPE camera and Leica 10, 20 and 40× objectives. The following lasers were used to visualize fluorescent probes pertaining to DAPI (blue, nuclear stain), Compound 5 (green) and 3RTau (red): 408, 488 and 568 nm. Z-stacked images were taken at 40× at 0.5 μm increments to visualize the entire thickness of the tissue.

SMILES: N#C/C(=C\c1ccc2cc(N3CCCCC3)ccc2c1)C(=O)NCC(O)CO (stereo not drawn) [Compound 5]
- Pearson correlation coefficient (PCC) of colocalization with 3RTau antibody (3RTau mouse retinal section): 0.67
- colocalization with 3Rtau immunoreactivity in retina (immunostaining) (3RTau transgenic mice retina, 3, 6 and 12 months): colocalizes
- Pearson correlation coefficient (PCC) of colocalization with 3RTau antibody (control mouse retinal section): 0.04
